Assay results reported in patent US8962842B2, “2-pyridone antimicrobial compositions” (priority 2010, dated 2015).
Where two headings read alike, the source gives them in different places.

Experiments:
[1] = tested on: Pseudomonas aeruginosa (12 strains); experiment: MIC range, broader panel of Quotient Bioresearch strains (Table 4); assay type: cell-based; conditions: for MIC50: read-out: MIC Range Median, Pseudomonas aeruginosa (12 strains)
[2] = tested on: Escherichia coli (6 strains); experiment: as above; assay type: cell-based; conditions: for MIC50: read-out: MIC Range Median, Escherichia coli (6 strains)
[3] = tested on: Enterococcus faecalis (5 strains); experiment: MIC range, broader panel of Quotient Bioresearch strains (Table 3); conditions: for MIC50: read-out: MIC Range Median, Enterococcus faecalis (5 strains)
[4] = tested on: Burkholderia cepacia (5 strains); experiment: MIC range, broader panel of Quotient Bioresearch strains (Table 4); assay type: cell-based; conditions: for MIC50: read-out: MIC Range Median, Burkholderia cepacia (5 strains)
[5] = tested on: Haemophilus influenza (5 strains); experiment: as above; assay type: cell-based, Haemophilus influenzae; conditions: for MIC50: 16 h, Median of the strain panel
[6] = tested on: Group C Streptococcus (4 strains); experiment: MIC range, broader panel of Quotient Bioresearch strains (Table 3); conditions: for MIC50: read-out: MIC Range Median, Group C Streptococcus (4 strains)
[7] = tested on: Streptococcus pyogenes (4 strains); experiment: as above; conditions: for MIC50: read-out: MIC Range Median, Streptococcus pyogenes (4 strains)
[8] = tested on: Klebsiella pneumonia (4 strains); experiment: MIC range, broader panel of Quotient Bioresearch strains (Table 4); assay type: cell-based; conditions: Klebsiella pneumoniae; for MIC50: read-out: MIC Range Median, Klebsiella pneumonia (4 strains)
[9] = tested on: Acinetobacter baumannii (12 strains); experiment: as above; assay type: cell-based; conditions: for MIC50: read-out: MIC Range Median, Acinetobacter baumannii (12 strains)
[10] = tested on: Staphylococcus aureus (16 strains); experiment: MIC range, broader panel of Quotient Bioresearch strains (Table 3); conditions: for MIC50: read-out: MIC Range Median, Staphylococcus aureus (16 strains)
[11] = tested on: Enterococcus faecium (3 strains); experiment: as above; conditions: for MIC50: read-out: MIC Range Median, Enterococcus faecium (3 strains)
[12] = tested on: Streptococcus pneumonia (5 strains); experiment: as above; conditions: Streptococcus pneumoniae; for MIC50: read-out: MIC Range Median, Streptococcus pneumonia (5 strains)
[13] = read-out: MIC Range High, Pseudomonas aeruginosa (12 strains)
[14] = read-out: MIC Range Low, Pseudomonas aeruginosa (12 strains)
[15] = read-out: MIC Range High, Escherichia coli (6 strains)
[16] = read-out: MIC Range Low, Escherichia coli (6 strains)
[17] = read-out: MIC Range High, Enterococcus faecalis (5 strains)
[18] = read-out: MIC Range Low, Enterococcus faecalis (5 strains)
[19] = read-out: MIC Range High, Burkholderia cepacia (5 strains)
[20] = read-out: MIC Range Low, Burkholderia cepacia (5 strains)
[21] = High of the strain panel, read-out: MIC Range High, Haemophilus influenza (5 strains)
[22] = Low of the strain panel, read-out: MIC Range Low, Haemophilus influenza (5 strains)
[23] = read-out: MIC Range High, Group C Streptococcus (4 strains)
[24] = read-out: MIC Range Low, Group C Streptococcus (4 strains)
[25] = read-out: MIC Range High, Streptococcus pyogenes (4 strains)
[26] = read-out: MIC Range Low, Streptococcus pyogenes (4 strains)
[27] = read-out: MIC Range High, Klebsiella pneumonia (4 strains)
[28] = read-out: MIC Range Low, Klebsiella pneumonia (4 strains)
[29] = read-out: MIC Range High, Acinetobacter baumannii (12 strains)
[30] = read-out: MIC Range Low, Acinetobacter baumannii (12 strains)
[31] = read-out: MIC Range High, Staphylococcus aureus (16 strains)
[32] = read-out: MIC Range Low, Staphylococcus aureus (16 strains)
[33] = read-out: MIC Range High, Enterococcus faecium (3 strains)
[34] = read-out: MIC Range Low, Enterococcus faecium (3 strains)
[35] = read-out: MIC Range High, Streptococcus pneumonia (5 strains)
[36] = read-out: MIC Range Low, Streptococcus pneumonia (5 strains)

Row | SMILES | MIC [1, 13] [mg/L] | MIC50 [1] [mg/L] | MIC [2, 15] [mg/L] | MIC [2, 16] [mg/L] | MIC50 [2] [mg/L] | MIC [3, 17] [mg/L] | MIC [3, 18] [mg/L] | MIC50 [3] [mg/L] | MIC [4, 19] [mg/L] | MIC [4, 20] [mg/L] | MIC50 [4] [mg/L] | MIC50 [5] [mg/L] | MIC [5, 21] [mg/L] | MIC [5, 22] [mg/L] | MIC [6, 23] [mg/L] | MIC [6, 24] [mg/L] | MIC50 [6] [mg/L] | MIC [7, 25] [mg/L] | MIC [7, 26] [mg/L] | MIC50 [7] [mg/L] | further results
1 | Cc1c(-c2ccc(N)c(F)c2)c(F)cn2c(=O)c(C(=O)[O-])cc(C3CC3)c12.[K+] [Example 1 K salt, potassium 8-(4-amino-3-fluoro-phenyl)-1-cyclopropyl-7-fluoro-9-methyl-4-oxo-4H-quinolizine-3-carboxylate] | 32 | 16 | > 32 | 0.06 | > 32 | 4 | 0.12 | 0.12 | 2 | 0.5 | 1 | ≤ 0.015 | 0.03 | ≤ 0.015 | 0.5 | 0.12 | 0.25 | 1 | 0.5 | 0.5 | MIC [1, 14]: 2 mg/L; MIC [8, 27]: > 32 mg/L; MIC [8, 28]: 0.5 mg/L; MIC50 [8]: 16 mg/L; MIC [9, 29]: > 32 mg/L; MIC [9, 30]: 0.25 mg/L; MIC50 [9]: 20 mg/L; MIC [10, 31]: 0.5 mg/L; MIC [10, 32]: ≤ 0.015 mg/L; MIC50 [10]: 0.5 mg/L; MIC [11, 33]: 8 mg/L; MIC [11, 34]: 1 mg/L; MIC50 [11]: 2 mg/L; MIC [12, 35]: 0.5 mg/L; MIC [12, 36]: 0.5 mg/L; MIC50 [12]: 0.5 mg/L
2 | Cc1c(-c2ccc(N)cc2)c(F)cn2c(=O)c(C(=O)[O-])cc(C3CC3)c12.[K+] [Example 5 K salt, potassium 8-(4-amino-phenyl)-1-cyclopropyl-7-fluoro-9-methyl-4-oxo-4H-quinolizine-3-carboxylate] | 16 | 4 | 16 | 0.03 | 8 | 1 | 0.03 | 0.06 | 0.5 | 0.12 | 0.25 | ≤ 0.015 | ≤ 0.015 | ≤ 0.015 | 0.12 | 0.06 | 0.06 | 0.5 | 0.12 | 0.12 | MIC [1, 14]: 1 mg/L; MIC [8, 27]: 16 mg/L; MIC [8, 28]: 0.12 mg/L; MIC50 [8]: 10 mg/L; MIC [9, 29]: 16 mg/L; MIC [9, 30]: 0.06 mg/L; MIC50 [9]: 6 mg/L; MIC [10, 31]: 0.25 mg/L; MIC [10, 32]: ≤ 0.015 mg/L; MIC50 [10]: 0.12 mg/L; MIC [11, 33]: 4 mg/L; MIC [11, 34]: 0.25 mg/L; MIC50 [11]: 1 mg/L; MIC [12, 35]: 0.25 mg/L; MIC [12, 36]: 0.12 mg/L; MIC50 [12]: 0.12 mg/L
3 | Cc1c(-c2ccc(C(N)=O)cc2)c(F)cn2c(=O)c(C(=O)[O-])cc(C3CC3)c12.[K+] [Example 6 K salt, potassium 8-(4-carbamoyl-phenyl)-1-cyclopropyl-7-fluoro-9-methyl-4-oxo-4H-quinolizine-3-carboxylate] | > 32 | > 32 | > 32 | 0.25 | > 32 | 4 | 0.12 | 0.25 | 4 | 1 | 2 | 0.03 | 0.06 | 0.03 | 0.12 | 0.06 | 0.12 | 0.25 | 0.12 | 0.12 | MIC [1, 14]: 8 mg/L; MIC [8, 27]: > 32 mg/L; MIC [8, 28]: 1 mg/L; MIC50 [8]: > 32 mg/L; MIC [9, 29]: > 32 mg/L; MIC [9, 30]: 1 mg/L; MIC50 [9]: > 32 mg/L; MIC [10, 31]: 1 mg/L; MIC [10, 32]: 0.03 mg/L; MIC50 [10]: 0.5 mg/L; MIC [11, 33]: 8 mg/L; MIC [11, 34]: 1 mg/L; MIC50 [11]: 2 mg/L; MIC [12, 35]: 0.25 mg/L; MIC [12, 36]: 0.25 mg/L; MIC50 [12]: 0.25 mg/L
4 | Cc1c(-c2ccncc2)ccn2c(=O)c(C(=O)[O-])cc(C3CC3)c12.[K+] [Example 16 K salt, potassium 1-cyclopropyl-9-methyl-4-oxo-8-(pyridin-4-yl)-4H-quinolizine-3-carboxylate] | > 32 | 16 | > 32 | 0.03 | > 32 | 8 | 0.25 | 0.25 | 0.5 | 0.25 | 0.25 | ≤ 0.015 | ≤ 0.015 | ≤ 0.015 | 0.5 | 0.25 | 0.25 | 1 | 0.25 | 0.375 | MIC [1, 14]: 2 mg/L; MIC [8, 27]: > 32 mg/L; MIC [8, 28]: 0.12 mg/L; MIC50 [8]: 16 mg/L; MIC [9, 29]: > 32 mg/L; MIC [9, 30]: 0.12 mg/L; MIC50 [9]: 16 mg/L; MIC [10, 31]: 1 mg/L; MIC [10, 32]: ≤ 0.015 mg/L; MIC50 [10]: 1 mg/L; MIC [11, 33]: 16 mg/L; MIC [11, 34]: 1 mg/L; MIC50 [11]: 8 mg/L; MIC [12, 35]: 1 mg/L; MIC [12, 36]: 0.5 mg/L; MIC50 [12]: 0.5 mg/L
5 | Cc1c(-c2ccc(CN)cc2)ccn2c(=O)c(C(=O)[O-])cc(C3CC3)c12.[K+] [Example 31 K salt, potassium 8-(4-(amino-methyl)-phenyl)-1-cyclopropyl-9-methyl-4-oxo-4H-quinolizine-3-carboxylate] | > 32 | 8 | 32 | ≤ 0.015 | 8 | 4 | 0.06 | 0.12 | 1 | 0.12 | 0.5 | ≤ 0.015 | ≤ 0.015 | ≤ 0.015 | 0.12 | 0.06 | 0.09 | 0.25 | 0.06 | 0.09 | MIC [8, 27]: 32 mg/L; MIC [8, 28]: 0.03 mg/L; MIC50 [8]: 9 mg/L; MIC [9, 29]: > 32 mg/L; MIC [9, 30]: 0.03 mg/L; MIC50 [9]: 8 mg/L; MIC [10, 31]: 2 mg/L; MIC [10, 32]: ≤ 0.015 mg/L; MIC50 [10]: 0.5 mg/L; MIC [11, 33]: 8 mg/L; MIC [11, 34]: 0.5 mg/L; MIC50 [11]: 4 mg/L; MIC [12, 35]: 0.25 mg/L; MIC [12, 36]: 0.06 mg/L; MIC50 [12]: 0.12 mg/L
